Test results reported in patent US4636518A, “Imidazole derivatives and pharmaceutical compositions” (G. D. Searle & Co., priority 1981, dated 1987).
Read-outs that look alike come from different tables or passages of the source.

How the values were obtained:
[1] = system: thromboxane production in human platelet rich plasma (TxB2); assay: Thromboxane production in human platelet rich plasma (TxB2 radioimmunoassay, collagen stimulated); type: cell-based; details: read-out: ACTIVITY (IC50 × 10^6 M)
Text: The antithrombotic activity of the compounds of the invention has been determined by their ability to inhibit production of thromboxane A2 (TxA2) by blood platelets the synthesis of which is an important factor in the aggregation of platelets and the initiation of thrombosis (R. J. Gryglewski, CRC Crit. Rev. Biochem., (1980), 7(4), 291).
The compounds of the invention have been tested by the following in vitro radioimmunoassays for their ability to inhibit thromboxane and affect prostacyclin production.
Thromboxane production in Human Platelet Rich Plasma
(§1) (a) Platelet rich plasma (prp) preparation
(§2) Human venous blood was […] from healthy male donors, who had denied any medication during the previous 14 days. Nine volumes of blood were mixed with one volume of 3.24% trisodium citrate. The citrated blood was centrifuged at 160 g for 10 mins. at 22° C. to obtain platelet rich plasma (prp). The platelets were then counted on a Coulter counter, and the platelet count was adjusted to 200,000 per μl with plasma.
(b) Thromboxane generation
The prp was then dispensed as aliquots into micro-Eppendorf tubes, maintained at 37° C. in a dry bath. The compounds, dissolved either in saline, ethanol, or dimethylsulphoxide, were added in duplicate to the prp aliquots to produce final concentrations in the range of 0.1-30 μg/ml. When ethanol and DMSO were used as the vehicle, triplicate controls containing the same percentage of vehicle as the test compounds were made. The final concentration of organic solvent was never more than 0.1%, which in previous experiments had no effect on TxB2 generation.
Following a 10 min. incubation with test compounds or vehicle, collagen was added to produce a final concentration of 20 μg/ml. The tubes were then whirly-mixed for 15 seconds and replaced in the dry bath for a further 10 minutes, controls received saline instead of collagen. The reaction was then stopped by rapid centrifugation (15000 g for 3 mins). The plasma was removed and frozen at -29° C. until assayed.
(c) Assay of Thromboxane B2
Briefly, 100 μl aliquots of the following, in 50 mM phosphate buffer+0.1% gelatin+thimerosal (pH 6.8) were incubated together for 16 hours at 4° C.: thromboxane TxB2 (plasma extract or standards 50 to 10,000 pg/ml), [^3 H]--TxB2 (approximately 15,000 dpm) and anti-TxB2 antiserum (0.5 μg/100 μl). The free and protein bound [^3 H]--TxB2 were separated by adsorption onto activated charcoal followed by centrifugation. […] of the supernatant was added to an aqueous scintillation fluid, and the radioactivity present was counted in a liquid scintillation counter. The binding of [^3 H]--TxB2 in the absence of added TxB2 was approximately 55%. The least amount of TxB2 to be detected accurately in the plasma was 50 pg/ml. Cross reactivity with other prostaglandins is less than 0.005% except PGD2 which is 1%.
Thus plasma samples were assayed to give a rough approximation of TxB2 content. The plasma was then appropriately diluted and assayed in duplicate to give accurate values.
The amount of TxB2 generated by the collagen was calculated by subtracting mean values obtained for the saline stimulated platelets from the mean values obtained from the collagen stimulated platelets. Then the amount of TxB2 generated in the presence of each concentration of compound was expressed as a % control and dose response curves were then constructed to determine the concentration of compound which produced a 50% inhibition.

[2] = system: PGI2 synthesis in cultured bovine arterial endothelial cells; assay: Prostacyclin production in cultured aortic endothelial cells (6-keto PGF1α radioimmunoassay); type: cell-based; details: for Net PGI2 synthesis: control 120
Text: Prostacyclin Production in Cultured Aortic Endothelial Cells
Bovine aortic arch tissue was obtained from a local abattoir, and transported to the laboratory on ice. Arterial endothelial cells were obtained from the washed (phosphate buffered saline) aortic arch tissue by gentle scraping of the intima, within two hours of sacrifice. Cell suspensions were washed by centrifugation, resuspended, and propagated in Roswell Park Memorial Institute (RPMI) 1640 medium (Moore, G. E., J.A.M.A., (1967), 199, 519) 1640 medium+20% foetal calf serum (FCS)+antibiotics (1-2 doublings). The cells were then trypsinised, cloned by limiting dilution, selected colonies grown to confluence (3-4 passages), and stored in liquid nitrogen. When required, batches of cells were removed from store, resuscitated, and propagated in RPMI medium+10% FCS+antibiotics (passaged 6-15 times). At trypsinisation, representative cells from each passage were transferred to multiwell plates (1×10^5 cells/well) and incubated for 3 days (final count 3.5×10^5 cells/well).
The medium in each well of the plate was exchanged for serum and antibiotic free RPMI 1640, and a time 0 sample (100 μl) taken. Drugs or vehicle were next added as required, and a further sample (800 μl) taken from each well after a 60 minute incubation at 37° C. with gentle shaking. Prostacyclin synthesis and release into the medium over this period was estimated using an RIA technique for 6-keto PGF1α, the stable metabolite of PGI2 (New England Nuclear 6-keto PGF1α RIA kit, Catalogue No. NEK 008).
(b) Assay of 6-keto PGF1α
Briefly, 100 μl aliquots in 50 mM phosphate buffer+0.1% gelatin+0.01% thimerosal (pH 6.8) of the following were incubated together for 16 hours at 4° C.: 6-keto PGF1α (incubation medium extract or standards 10-1000 pg/0.1 ml), [^3 H]-6-keto PGF1α (approximately 15000 dpm) anti-6-keto PGF1α antiserum. The […] and protein bound [^3 H]-6-keto PGF1α were separated by adsorption onto activated charcoal followed by centrifugation. 850 μl of the supernatant was added to an aqueous scintillation fluid, and the radioactivity present counted in a liquid scintillation counter. The binding of [^3 H]-6-keto PGF1α in the absence of added 6-keto PGF1α was approximately 40%. The least amount of 6-keto PGF1α to be detected accurately in the samples was 100 pg/ml. Cross reactivity with other prostaglandins was less than 0.3% except PGE2 (2%) and PGF2α (2.7%).

[3] = system: collagen induced aggregation of human prp; assay: Inhibition of platelet aggregation in vitro, collagen induced (turbidometric); type: cell-based; details: for IC50: Platelet, human prp, collagen, read-out: I.C.50 (μM) vs COLLAGEN; for inhibition of collagen induced aggregation of human prp: result in words
Experimental: as §1
as §2, with “Nine volumes of blood were mixed with one volume of 3.24% trisodium citrate.” left out
(§3) Inhibition of Platelet Aggregation in vitro

[4] = system: arachidonic acid induced aggregation of human prp; assay: Inhibition of platelet aggregation in vitro, arachidonic acid induced (turbidometric); type: cell-based; details: for IC50: Platelet, human prp, arachidonic acid, read-out: I.C.50 (μM) vs ARACHIDONIC ACID; for inhibition of arachidonic acid induced aggregation of human prp: result in words
Experimental: as §1, §2, §3
In addition to the above tests, platelet aggregation in citrated prop (prepared as above) against a variety of aggregating agents was measured turbidometrically in a Payton Dual Channel Aggregometer (method as described in G.V.R. Born, Nature, (1962), 194, 927).

[5] = system: aggregation of human platelet rich-plasma; assay: Aggregation of human platelet rich plasma (aggregating agent not stated); type: cell-based; details: in vitro, result in words
[6] = system: platelet aggregation in the male retired breeder rat; assay: Antiplatelet activity in the male retired breeder rat model (platelet aggregate ratio); type: in vivo; details: read-out: EX50 (3h post oral administration)
Experimental: The retired breeder male rat may be utilized any time from 24 hours to 6 months after receipt without prior fasting or manipulation. […] The test (as described in R. N. Saunders, T. S. Burns, M. R. Selzer and E. R. Waskawic, Lab. Animal Sci., (1977), 27, 757-761) consists of the oral administration of the investigative compound either dissolved in or suspended in propylene glycol 400 at 20 mg/kg to four retired breeder male rats (40 mg of compound required). Three hours from the time of administration, the rats are ether anaesthetized, the abdominal cavity exposed and one ml of blood is withdrawn into each of two syringes from the vena cava. The first syringe contains four ml of buffered citrate/formalin solution and the second syringe contains four ml of buffered citrate alone. The syringes are inverted, held at room temperature for 15 minutes and the contents are centrifuged at 170 g for 14 minutes. Platelet counts are obtained on the undiluted solutions by means of a hemacytometer under 430×phase-contrast microscopy. The platelet aggregate ratio is obtained by dividing the platelet count of the first syringe by that of the second syringe. A ratio of 1.0 would indicate that no platelet aggregates are present whereas ratios below 1.0 indicate the presence and degree of platelet aggregate formation which has occurred.

[7] = male breeder rat, oral, 3h post administration

Row | Compound | IC50 [1] [µM] | IC50 [3] [µM] | IC50 [4] [µM] | ED50 [6, 7] [mg/kg] | further results
1 | COc1ccc(COCC(Cn2ccnc2)OCc2ccc(OC)cc2)cc1 (centres unmarked) [Example 1, 1-[2-[(4-methoxyphenyl)methoxy]-3-[(4-methoxyphenyl)methoxy]propyl]-1H-imidazole] | 12 | 103 | 31 | 0.49 | Net PGI2 synthesis ([2]; 26 µM): 125 pg 6-keto PGF1 α/60 min/3.5 × 10^5; Net PGI2 synthesis ([2]; 7.8 μm): 130 pg 6-keto PGF1 α/60 min/3.5 × 10^5; Net PGI2 synthesis ([2]; 26.0 μm): 106 pg 6-keto PGF1 α/60 min/3.5 × 10^5; Net PGI2 synthesis ([2]; 78.0 μm): 135 pg 6-keto PGF1 α/60 min/3.5 × 10^5; activation at 2.6 µM ([2]; Bos taurus, Endothelial cell, 1 h, 2.6 μm, 60 min, read-out: % Change (PGI2 synthesis)): 4%; activation at 7.8 µM ([2]; Bos taurus, Endothelial cell, 1 h, 7.8 μm, 60 min, read-out: % Change (PGI2 synthesis)): 8%; activation at 26 µM ([2]; Bos taurus, Endothelial cell, 1 h, 26.0 μm, 60 min, read-out: % Change (PGI2 synthesis)): -12%; activation at 78 µM ([2]; Bos taurus, Endothelial cell, 1 h, 78.0 μm, 60 min, read-out: % Change (PGI2 synthesis)): 12%; effect on production of prostacyclin ([2]; at concentrations equivalent to those which inhibit TxA2 formation, result in words): not to significantly effect production of prostacyclin; effect on basal PGI2 synthesis ([2]; at concentrations substantially in excess of those which inhibit platelet thromboxane synthetase, 1 hour, result in words): no significant effect on basal PGI2 synthesis; inhibition of collagen induced aggregation of human prp [3]: clearly more active than aspirin, dipyridamole, or sulphinpyrazone; inhibition of arachidonic acid induced aggregation of human prp [4]: clearly more active than aspirin, dipyridamole, or sulphinpyrazone; aggregation of human platelet rich-plasma [5]: the aggregation of human platelet rich-plasma
2 | COc1ccc(COCC(Cn2ccnc2)OCc2ccccc2)cc1 (centres unmarked) [Example 2] | 11 | – | – | – | –
3 | COc1ccc(COCC(Cn2ccnc2)OCc2ccc(Cl)cc2)cc1 (centres unmarked) [Example 4] | 23 | – | – | – | –
4 | COc1ccc(COCC(Cn2ccnc2)OCc2cccc(OC)c2)cc1 (centres unmarked) [Example 15] | 14 | – | – | – | –
5 | COc1ccc(COCC(Cn2ccnc2)OCc2ccc3c(c2)OCO3)cc1 (centres unmarked) [Example 20] | 4 | 89 | 24 | 1.8 | inhibition of collagen induced aggregation of human prp [3]: clearly more active than aspirin, dipyridamole, or sulphinpyrazone; inhibition of arachidonic acid induced aggregation of human prp [4]: clearly more active than aspirin, dipyridamole, or sulphinpyrazone
6 | COc1ccc(COCC(Cn2ccnc2)OCc2ccc(C#N)cc2)cc1 (centres unmarked) [Example 24] | 12 | – | – | – | –
7 | COc1ccc(COCC(Cn2ccnc2)OCc2ccccn2)cc1 (centres unmarked) [Example 28] | 10 | – | – | – | –
8 | COc1ccc(COCC(Cn2ccnc2)OCc2ccsc2)cc1 (centres unmarked) [Example 30] | 20 | – | – | – | –
9 | c1cncc(COC(COCc2ccc3c(c2)OCO3)Cn2ccnc2)c1 (centres unmarked) [Example 34] | 13 | – | – | – | –
10 | COc1ccc(COC(CSCc2ccc(OC)cc2)Cn2ccnc2)cc1 (centres unmarked) [Example 35] | 22 | – | – | – | –
11 | CC(=O)Oc1ccccc1C(=O)O [aspirin, reference compound] | – | – | 56 | – | ED50 ([6]; Rattus norvegicus, po, 3 h): 7.7 mg/kg
12 | OCCN(CCO)c1nc(N2CCCCC2)c2nc(N(CCO)CCO)nc(N3CCCCC3)c2n1 [dipyridamole, reference compound] | – | > 200 | > 200 | 1.8 | –
13 | O=C1C(CC[S+]([O-])c2ccccc2)C(=O)N(c2ccccc2)N1c1ccccc1 (centres unmarked) [sulphinpyrazone, reference compound] | – | 173 | – | 4.1 | –
